Data from paper PMC3298571 (Bioorganic & medicinal chemistry, 2012).
“Also recorded” adds a separate entry of the source. Marks after values point to notes of the source that are not given here.

Columns and labels:
Male ICR mice [1] = details: mouse; cited from earlier work
Male ICR mice [2] = details: mouse; cited from earlier work; remark: listed apart in the source
Male ICR mice [3] = details: mouse; cited from earlier work; remark: listed apart in the source
CB2 receptor = details: read-out: Ki CB2; cited from earlier work
CB1 receptor [4] = details: read-out: Ki CB1; cited from earlier work
CB1 receptors = details: [35S]GTPγS binding assay; cited from earlier work
mice [5] = details: cited from earlier work
mice [6] = details: cited from earlier work; remark: listed apart in the source
Male ICR mice [7] = details: mouse; cited from earlier work; remark: listed apart in the source
CB1 receptor [8] = target: CB1 receptor (Homo sapiens, UniProt P21554); assay: [35S]GTPγS binding assay; format: biochemical
Sequence of CB1 receptor (Homo sapiens, UniProt P21554) (P21554 whole entry): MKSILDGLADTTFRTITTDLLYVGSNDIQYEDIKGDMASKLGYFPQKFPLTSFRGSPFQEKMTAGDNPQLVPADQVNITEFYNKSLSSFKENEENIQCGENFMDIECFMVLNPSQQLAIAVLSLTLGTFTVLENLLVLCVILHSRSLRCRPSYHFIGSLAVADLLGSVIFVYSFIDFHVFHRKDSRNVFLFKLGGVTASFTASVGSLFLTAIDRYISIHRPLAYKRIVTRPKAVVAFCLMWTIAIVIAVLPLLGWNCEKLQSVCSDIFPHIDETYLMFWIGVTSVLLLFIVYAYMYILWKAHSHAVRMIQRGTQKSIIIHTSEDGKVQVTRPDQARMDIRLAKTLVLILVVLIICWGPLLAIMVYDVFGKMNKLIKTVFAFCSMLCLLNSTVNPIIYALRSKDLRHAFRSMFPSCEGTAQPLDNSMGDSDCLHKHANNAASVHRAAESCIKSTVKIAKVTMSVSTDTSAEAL

mice [9] = assay: Rimonabant antagonism of tetrad effects in mice; format: in vivo, mouse; details: 3 mg/kg rimonabant, 30 mg/kg JWH-415

For `Cc1c(C(=O)c2cccc3ccccc23)c2cccc3c2n1[C@H](CN1CCOCC1)CO3` [WIN-55,212-2], the “ED50 TF” value (Male ICR mice [1]) is listed as 0.94^c μmol / kg and the “ED50 SA” value (Male ICR mice [2]) is listed as 0.23^c μmol / kg.
For `CCCCCn1cc(C(=O)c2cccc3ccccc23)c2ccccc21` [JWH-018, 1-pentyl-3-(1-naphthoyl)indole], the “ED50 TF” value (Male ICR mice [1]) is listed as 0.09^e μmol / kg, the “ED50 SA” value (Male ICR mice [2]) is listed as 0.44^e μmol / kg and the “ED50 RT” value (Male ICR mice [3]) is listed as 1.7^e μmol / kg. For the same molecule, the Ki (CB2 receptor) was 2.9 ± 2.6 nM and the Ki (CB1 receptor [4]) was 9 ± 5 nM.
In the case of `C=C1CC[C@@H]2[C@@H](C1)c1ccc(C(C)(C)CCCCCC)cc1OC2(C)C` [JWH-104, deoxy-Δ^9(11)-THC-dimethylheptyl], the “Efficacy at CB1 receptors” value (CB1 receptors) is listed as “low efficacy agonist”, the “Effect of rimonabant on cannabimimetic effects in the battery of mouse tests” value (mice [5]) is listed as “blocked by rimonabant” and the “Substitution for THC in drug discrimination” value (mice [6]) is listed as “did not substitute for THC”. For the same molecule, the Ki (CB1 receptor [4]) was 909 nM.
For `CCCn1c(C)c(C(=O)c2cccc3ccccc23)c2ccccc21` [JWH-015, 1-propyl-2-methyl-3-(1-naphthoyl)indole], the “ED50 TF” value (Male ICR mice [1]) is given as 84.7^e μmol / kg, the “ED50 SA” value (Male ICR mice [2]) is given as 18.7^e μmol / kg and the “ED50 RT” value (Male ICR mice [3]) is given as 99.1^e μmol / kg. The “ED50 RI” value (Male ICR mice [7]) was 87.2^e μmol / kg.
For `CCCCCn1c(C)c(C(=O)c2ccc(CC)c3ccccc23)c2ccccc21` [JWH-213], the Ki (CB2 receptor) is given as 0.42 ± 0.05 nM and the Ki (CB1 receptor [4]) is given as 1.5 ± 0.2 nM.
With `CCCn1c(C)c(C(=O)c2ccc(F)c3ccccc23)c2ccccc21` [JWH-415, 2-Methyl-1-propyl-3-(4-fluoro-1-naphthoyl)indole] the “Efficacy at the CB1 receptor” value (CB1 receptor [8]) was “low efficacy agonist” and the “Effect of rimonabant on tetrad effects” value (mice [9]) was “blocked or partially blocked; also recorded: rimonabant-reversible activity”.
